# Patent US10874108B2, “Anti-microbial compositions” (5D HEALTH PROTECTION GROUP LTD, priority 2016, dated 2020)
# Where two headings read alike, the source gives them in different places.
# How the values were obtained:
# cells [1] = test: Direct cytotoxicity, Neutral Red Uptake assay
# P. aeruginosa biofilms [2] = test: CDC bioreactor biofilm LR/kill, EDTA compounds at 100 ppm silver; type: cell-based; details: 100 ppm of silver, exposed 24 hours
# Procedure: (§1) Microbial cultures were exposed to compounds for 24 hours. Compounds were diluted according to 100 ppm of silver. Biofilms were formed using the CDC bioreactor. Samples were performed in triplicate.
# S. aureus biofilms [3] = test: as above; type: cell-based; details: 100 ppm of silver, exposed 24 hours
# Procedure: as §1
# cells [4] = test: Indirect cytotoxicity, agar diffusion method
# [5] = Displacement of metals from EDTA complexes by physiological saline; type: physicochemical
# Procedure: Adding saline to the suspension of Ag4(EDTA), the suspension quickly precipitated a solid (AgCl). The precipitate was filtered off, washed with deionized water 4 times; and then dried in a vacuum oven at 50° C. in a dark flask to avoid exposure to direct light.
# The displacement experiment described above was repeated for compounds 1-4 to provide the percent of the displacement of silver, copper, zinc from the EDTA complexes by physiological saline.
# [6] = system: P. aeruginosa 24-hour CDC biofilms; test: Colonies after exposure of 24-hour CDC biofilms to EDTA compounds; type: cell-based
# [7] = system: S. aureus 24-hour CDC biofilms; test: as above; type: cell-based
# cells [8] = system: cells
# cells [9] = system: cells; remark: listed apart in the source
# P. aeruginosa biofilms [10] = details: 4%
# Procedure: (§2) The Mean Log10 density of untreated controls was calculated (±standard deviation).
# S. aureus biofilms [11] = details: 4%
# Procedure: as §2
# [12] = system: S. aureus MRSA BAA-43 biofilm; test: MBEC model (ASTM E2799), liquid formulas; type: cell-based; details: 4%, treated 24 hours
# Procedure: (§3) The MBEC model (ASTM E2799) was used to assess the anti-biofilm efficacy of the liquid formulas. Biofilms were grown on polystyrene pegs in the MBEC model for either 24 or 48 hours before treatment. Using the liquid form of the EDTA complexes 24- and 48-hour biofilms were tested (Table 20).
# (§4) 24- and 48-hour biofilms were formed using MBEC plate method and treated for 24 hours. Technical replicates n=3. Log reduction (LR) values show±standard error (SE) of LR value.
# [13] = system: P. aeruginosa NCTC 10662 biofilm; test: MBEC model (ASTM E2799), liquid formulas; type: cell-based; details: 4%, treated 24 hours; for LR: hydrate
# Procedure: as §3, §4
# [14] = system: E. faecalis ATCC 29212 biofilm; test: MBEC model (ASTM E2799), liquid formulas; type: cell-based; details: 4%, treated 24 hours
# Procedure: as §3, §4
# [15] = system: S. epidermidis ATCC 35984 biofilm; test: MBEC model (ASTM E2799), liquid formulas; type: cell-based; details: 4%, treated 24 hours
# Procedure: as §3, §4
# [16] = system: S. aureus ATCC 29213 biofilm; test: MBEC model (ASTM E2799), liquid formulas; type: cell-based; details: 4%, treated 24 hours
# Procedure: as §3, §4
# [17] = system: S. aureus 24-hour biofilm
# Procedure: (§5) Minimum inhibitory concentration (MIC), minimum biocidal concentration (MBC) and minimum biofilm eradication (MBEC) were determined. Values represent a percentage of the stock antimicrobial solution (8%).
# [18] = system: P. aeruginosa 24-hour biofilm
# Procedure: as §5
# [19] = 24-Hour Biofilms, Treatment Time 1
# [20] = 24-Hour Biofilms, Treatment Time 5
# [21] = 24-Hour Biofilms, Treatment Time 15
# [22] = 72-Hour Biofilms, Treatment Time 1
# [23] = 72-Hour Biofilms, Treatment Time 5
# [24] = 72-Hour Biofilms, Treatment Time 15
smiles,measurement,setting,value
"O=C([O-])CN(CCN(CC(=O)[O-])CC(=O)[O-])CC(=O)[O-].[Ag+].[Cu+2].[Na+] [Compound 1, AgCuNaEDTA]",Interpretation,cells [1]; 25 ppm,"Cytotoxic (if the percentage viability is less than 70% of the untreated control, then the substance is considered cytotoxic)"
same,Percentage of Control/Percentage Viability (%),cells [1]; 25 ppm,51.54 ± 9.44%
same,Interpretation,cells [1]; 50 ppm,"Cytotoxic (if the percentage viability is less than 70% of the untreated control, then the substance is considered cytotoxic)"
same,Percentage of Control/Percentage Viability (%),cells [1]; 50 ppm,53.66 ± 9.48%
same,Interpretation,cells [1]; 100 ppm,"Cytotoxic (if the percentage viability is less than 70% of the untreated control, then the substance is considered cytotoxic)"
same,Percentage of Control/Percentage Viability (%),cells [1]; 100 ppm,52.57 ± 8.97%
same,Kill %,P. aeruginosa biofilms [2],99.99%
same,LR,P. aeruginosa biofilms [2],3.88 ± 0.15
same,LR,P. aeruginosa biofilms [2]; listed as Ag/Cu/NaEDTA,3.5
same,Kill %,S. aureus biofilms [3],100%
same,Lysis Index,cells [4]; 25 ppm,1
same,Zone Index,cells [4]; 25 ppm,2
same,Lysis Index,cells [4]; 50 ppm,1
same,Zone Index,cells [4]; 50 ppm,3
same,Lysis Index,cells [4]; 100 ppm,1
same,Zone Index,cells [4]; 100 ppm,3
same,Displacement (%) Copper,[5],53.49 ± 5.56%
same,Displacement (%) Silver,[5],81.37 ± 4.29%
"O=C([O-])CN(CCN(CC(=O)[O-])CC(=O)[O-])CC(=O)[O-].[Ag+].[Ag+].[Cu+2] [Compound 2, Ag2CuEDTA]",Interpretation,cells [1]; 25 ppm,"Non cytotoxic (if the percentage viability is less than 70% of the untreated control, then the substance is considered cytotoxic)"
same,Percentage of Control/Percentage Viability (%),cells [1]; 25 ppm,72.21 ± 3.74%
same,Interpretation,cells [1]; 50 ppm,"Non cytotoxic (if the percentage viability is less than 70% of the untreated control, then the substance is considered cytotoxic)"
same,Percentage of Control/Percentage Viability (%),cells [1]; 50 ppm,72.01 ± 7.41%
same,Interpretation,cells [1]; 100 ppm,"Non cytotoxic (if the percentage viability is less than 70% of the untreated control, then the substance is considered cytotoxic)"
same,Percentage of Control/Percentage Viability (%),cells [1]; 100 ppm,72.09 ± 17.57%
same,Kill %,P. aeruginosa biofilms [2],99.95%
same,LR,P. aeruginosa biofilms [2],3.31 ± 0.01
same,Kill %,S. aureus biofilms [3],99.99%
same,LR,S. aureus biofilms [3],4.0 ± 0.20
same,Number of colonies detected,[6],0 Cfu/ml
same,Lysis Index,cells [4]; 25 ppm,1
same,Zone Index,cells [4]; 25 ppm,2
same,Lysis Index,cells [4]; 50 ppm,1
same,Zone Index,cells [4]; 50 ppm,2
same,Lysis Index,cells [4]; 100 ppm,1
same,Zone Index,cells [4]; 100 ppm,2
same,Displacement (%) Copper,[5],41.37 ± 6.92%
same,Displacement (%) Silver,[5],77.99 ± 3.90%
same,Number of colonies detected,[7],0 Cfu/ml
"O=C([O-])CN(CCN(CC(=O)[O-])CC(=O)[O-])CC(=O)[O-].[Ag+].[Na+].[Zn+2] [Compound 3, AgZnNaEDTA]",percentage viability,cells [8],46.46-63.08%
same,Kill %,P. aeruginosa biofilms [2],99.97%
same,LR,P. aeruginosa biofilms [2],3.51 ± 0.04
same,LR,P. aeruginosa biofilms [2]; listed as Ag/Zn/NaEDTA,3.5
same,Kill %,S. aureus biofilms [3],100%
same,Number of colonies detected,[6],0 Cfu/ml
same,Lysis Index,cells [4]; 25 ppm,1
same,Zone Index,cells [4]; 25 ppm,2
same,Lysis Index,cells [4]; 50 ppm,1
same,Zone Index,cells [4]; 50 ppm,2
same,Lysis Index,cells [4]; 100 ppm,1
same,Zone Index,cells [4]; 100 ppm,3
same,Displacement (%) Silver,[5],82.32 ± 5.63%
same,Displacement (%) Zinc,[5],47.33 ± 13.29 %
same,Number of colonies detected,[7],0 Cfu/ml
"O=C([O-])CN(CCN(CC(=O)[O-])CC(=O)[O-])CC(=O)[O-].[Cu+2].[Na+].[Na+] [Cu—Na-EDTA, reference compound]",Number of colonies detected,[6],0 Cfu/ml
same,Number of colonies detected,[7],0 Cfu/ml
Oc1ccccc1 [Phenol],Lysis Index,cells [9],3
same,Zone Index,cells [9],5
"O.O=C([O-])CN(CCN(CC(=O)[O-])CC(=O)[O-])CC(=O)[O-].[Na+].[Na+].[Na+].[Na+] [Tetrasodium EDTA, ethylenediaminetetraacetic acid tetrasodium salt hydrate]",Kill %,P. aeruginosa biofilms [10]; [19],83.018%
same,LR,P. aeruginosa biofilms [10]; [19],0.77 ± 0.08
same,Kill %,P. aeruginosa biofilms [10]; [20],97.92%
same,LR,P. aeruginosa biofilms [10]; [20],1.68 ± 0.05
same,Kill %,P. aeruginosa biofilms [10]; [21],99.51%
same,LR,P. aeruginosa biofilms [10]; [21],2.31 ± 0.10
same,Kill %,P. aeruginosa biofilms [10]; [22],99.22%
same,LR,P. aeruginosa biofilms [10]; [22],2.10 ± 0.05
same,Kill %,P. aeruginosa biofilms [10]; [23],99.56%
same,LR,P. aeruginosa biofilms [10]; [23],2.35 ± 0.02
same,Kill %,P. aeruginosa biofilms [10]; [24],95.07%
same,LR,P. aeruginosa biofilms [10]; [24],1.31 ± 0.12
same,Kill %,S. aureus biofilms [11]; [19],97.41%
same,LR,S. aureus biofilms [11]; [19],1.59 ± 1.56
same,Kill %,S. aureus biofilms [11]; [20],59.90%
same,LR,S. aureus biofilms [11]; [20],0.40 ± 0.05
same,Kill %,S. aureus biofilms [11]; [21],80.51%
same,LR,S. aureus biofilms [11]; [21],0.71 ± 0.11
same,Kill %,S. aureus biofilms [11]; [22],54.09%
same,LR,S. aureus biofilms [11]; [22],0.34 ± 0.37
same,Kill %,S. aureus biofilms [11]; [23],79.86%
same,LR,S. aureus biofilms [11]; [23],0.70 ± 0.05
same,Kill %,S. aureus biofilms [11]; [24],80.25%
same,LR,S. aureus biofilms [11]; [24],0.70 ± 0.02
same,Kill %,[12]; 24-Hour Biofilm,100%
same,LR,[12]; 24-Hour Biofilm,5.40
same,Kill %,[12]; 48-Hour Biofilm,100%
same,LR,[12]; 48-Hour Biofilm,6.43
same,Kill %,[13]; 24-Hour Biofilm,99.9998%
same,LR,[13]; 24-Hour Biofilm,5.94±3.43
same,LR,"[13]; 24-Hour Biofilm, listed as tEDTA",5.94 ± 3.43
same,Kill %,[13]; 48-Hour Biofilm,99.9999%
same,LR,[13]; 48-Hour Biofilm,6.99±4.04
same,LR,"[13]; 48-Hour Biofilm, listed as tEDTA",6.99 ± 4.04
same,Kill %,[14]; 24-Hour Biofilm,100%
same,LR,[14]; 24-Hour Biofilm,6.35
same,Kill %,[14]; 48-Hour Biofilm,100%
same,LR,[14]; 48-Hour Biofilm,6.40
same,Kill %,[15]; 24-Hour Biofilm,100%
same,LR,[15]; 24-Hour Biofilm,6.09
same,Kill %,[15]; 48-Hour Biofilm,100%
same,LR,[15]; 48-Hour Biofilm,6.41
same,Kill %,[16]; 24-Hour Biofilm,100%
same,LR,[16]; 24-Hour Biofilm,6.44
same,Kill %,[16]; 48-Hour Biofilm,100%
same,LR,[16]; 48-Hour Biofilm,6.50
same,MBC,[17]; 1 min,50 percentage of the stock antimicrobial solution (8%)
same,MIC,[17]; 1 min,25 percentage of the stock antimicrobial solution (8%)
same,MBC,[17]; 30 min,50 percentage of the stock antimicrobial solution (8%)
same,MIC,[17]; 30 min,12.5 percentage of the stock antimicrobial solution (8%)
same,MBC,[17]; 1 h,25 percentage of the stock antimicrobial solution (8%)
same,MBEC,[17]; 1 h,6.25 percentage of the stock antimicrobial solution (8%)
same,MIC,[17]; 1 h,25 percentage of the stock antimicrobial solution (8%)
same,MBC,[17]; 24 h,6.25 percentage of the stock antimicrobial solution (8%)
same,MBEC,[17]; 24 h,6.25 percentage of the stock antimicrobial solution (8%)
same,MIC,[17]; 24 h,6.25 percentage of the stock antimicrobial solution (8%)
same,MBC,[18]; 1 min,50 percentage of the stock antimicrobial solution (8%)
same,MIC,[18]; 1 min,25 percentage of the stock antimicrobial solution (8%)
same,MBC,[18]; 30 min,50 percentage of the stock antimicrobial solution (8%)
same,MIC,[18]; 30 min,12.5 percentage of the stock antimicrobial solution (8%)
same,MBC,[18]; 1 h,25 percentage of the stock antimicrobial solution (8%)
same,MBEC,[18]; 1 h,6.25 percentage of the stock antimicrobial solution (8%)
same,MIC,[18]; 1 h,25 percentage of the stock antimicrobial solution (8%)
same,MBC,[18]; 24 h,6.25 percentage of the stock antimicrobial solution (8%)
same,MBEC,[18]; 24 h,6.25 percentage of the stock antimicrobial solution (8%)
same,MIC,[18]; 24 h,6.25 percentage of the stock antimicrobial solution (8%)
